Literature values, collected in paper PMC6243681 (Chemical Science, 2018).

- stability in serum / to serum proteases: low stability
Sequence: THRPPMWSPVWP
